From BindingDB's records for doi:10.1016/j.bmc.2011.01.052 (Kinki University, 2011) come the findings set out here.

This assay in a line: Inhibition of rat intestinal maltase.
The compound `OC[C@@H]1[C@@H](O)[C@H](O)C[S@+]1C[C@@H](O)[C@H](O)[C@H](O)[C@@H](O)CO` [1,4-Dideoxy-1,4-{(R)-[(2S,3R,4R,5S)-2,3,4,5,6-pentahydroxyhexyl]episulfoniumylidene}-D-arabinitol chloride] registered a half-maximal inhibitory concentration (IC50) of 1.3 µM. Take `OC[C@@H](O)C[S@@+]1C[C@@H](O)[C@H](O)[C@H]1CO` [1,4-dideoxy-1,4-{(R)-[(2S)-2,3-dihydro-xypropyl]episulfoniumylidene}-D-arabinitol Chloride]: the IC50 is 105 µM. The result for `OC[C@@H](O)[C@@H](O)[C@H](O)[C@H](O)C[S@@+]1C[C@@H](O)[C@H](O)[C@H]1CO` [(1R,2R,3S,4S)-3,4-dihydroxy-2-(hydroxymethyl)-1-((2S,3S,4R,5R)-2,3,4,5,6-pentahydroxyhexyl)tetrahydro-1H-thiophenium chloride] reads 4.3 µM; that for `OC[C@@H]1[C@@H](O)[C@H](O)C[S@+]1C[C@@H](O)[C@@H](O)[C@H](O)[C@@H](O)CO` [(1R,2R,3S,4S)-3,4-dihydroxy-2-(hydroxymethyl)-1-((2S,3S,4R,5S)-2,3,4,5,6-pentahydroxyhexyl)tetrahydro-1H-thiophenium chloride], 5.1 µM; that for `OC[C@@H]1[C@@H](O)[C@H](O)C[S@+]1C[C@@H](O)[C@@H](O)[C@H](O)[C@H](O)[C@@H](O)CO` [(2R,3S,4S)-1-[(2S,3S,4R,5R,6S)-2,3,4,5,6,7-hexahydroxyheptyl]-3,4-dihydroxy-2-(hydroxymethyl)tetrahydrothiophenium (non-preferred name)], 4.8 µM. The result for `OC[C@H](O)C[S@@+]1C[C@@H](O)[C@H](O)[C@H]1CO` [Neosalaprinol] reads more than 384 µM; that for `O=S(=O)([O-])O[C@@H]([C@H](O)[C@@H](O)CO)[C@H](O)C[S@@+]1C[C@@H](O)[C@H](O)[C@H]1CO` [ponkoranol], 3.2 µM.

For orientation: IC50 means the point on the concentration scale where inhibition reaches its midpoint. High values mean a need for much substance, low ones inhibition by little substance.
